Results: patent publication US7959948B2, “Pharmaceutical composition of quetiapine fumarate” (Synthon BV, priority 2007, dated 2011)
Structures can show the parent of a compound that is named as a salt.

Assays:
[1] = white crystalline powder; cited from earlier work
[2] = physchem
Text: The composition preferably comprises an acid, preferably fumaric acid.

solubility ([2]; pH 1, simulated gastric fluid): 35.8 mg/mL
solubility ([2]; pH 6.2, aqueous buffer): 4.6 mg/mL
SMILES: OCCOCCN1CCN(C2=Nc3ccccc3Sc3ccccc32)CC1 [Quetiapine fumarate, 2-[2-(4-dibenzo[b,f] [1,4]thiazepin-11-yl-1-piperazinyl)ethoxy]ethanol]
solubility in water [1]: moderately soluble in water
